Results published in US20120302569A1, “PHENYL-THIAZOLYL INHIBITORS OF PRO-MATRIX METALLOPROTEINASE ACTIVATION” (priority 2011, published 2012).
Counter-ions that a name gives are not always drawn.

What was measured:
[1] = target: T1, proMMP9(67-444;ΔFnII) (SEQ ID NO:5) (Homo sapiens, UniProt P14780, DEL216-390); assay: ThermoFluor with proMMP9(67-444;ΔFnII); settings: read-out: proMMP9(67-444; ΔFnII) (SEQ ID NO: 5) binding
T1 construct: start methionine (N); made in house; host or cells: E. coli BL21(DE3) RIL
T1 sequence (P14780 with tags, fused parts or gaps DEL216-390): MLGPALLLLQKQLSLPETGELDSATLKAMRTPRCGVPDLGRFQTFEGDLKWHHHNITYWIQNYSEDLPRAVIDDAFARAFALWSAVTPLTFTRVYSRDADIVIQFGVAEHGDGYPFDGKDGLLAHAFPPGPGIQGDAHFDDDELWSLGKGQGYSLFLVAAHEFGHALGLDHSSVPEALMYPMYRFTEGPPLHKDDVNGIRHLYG
Protocol: (§1) The ThermoFluor® (TF) assay is a 384-well plate-based binding assay that measures thermal stability of proteins (Biomol Screen 2001, 6, 429-40; Biochemistry 2005, 44, 5258-66). The experiments were carried out using instruments available from Johnson & Johnson Pharmaceutical Research & Development, LLC. TF dye used in all experiments was […] (1,8-ANS) (Invitrogen: A-47).
(§2) Compounds were arranged in a pre-dispensed plate (Greiner Bio-one: 781280), wherein compounds were serially diluted in 100% DMSO across 11 columns within a series. Columns 12 and 24 were used as DMSO reference and contained no compound. For multiple compound concentration-response experiments, the compound aliquots (50 nL) were robotically predispensed directly into black 384-well polypropylene PCR microplates (Abgene: TF-0384/k) using a Cartesian Hummingbird liquid handler (DigiLab, Holliston, Mass.). Following compound dispense, protein and dye solutions were added to achieve the final assay volume of 3 μL. The assay solutions were overlayed with 1 μL of silicone oil (Fluka, type DC 200: 85411) to prevent evaporation.
(§3) Assay plates were robotically loaded onto a thermostatically controlled PCR-type thermal block and then heated from 40 to 90° C. at a ramp-rate of 1° C./min for all experiments. Fluorescence was measured by continuous illumination with UV light (Hamamatsu LC6) supplied via fiber optics and filtered through a band-pass filter (380-400 nm; >6 OD cutoff). Fluorescence emission of the entire 384-well plate was detected by measuring light intensity using a CCD camera (Sensys, Roper Scientific) filtered to detect 500±25 nm, resulting in simultaneous and independent readings of all 384 wells. A single image with 20-sec exposure time was collected at each temperature, and the sum of the pixel intensity in a given area of the assay plate was recorded vs temperature and fit to standard equations to yield the Tm (J Biomol Screen 2001, 6, 429-40).
(§4) Thermodynamic parameters necessary for fitting compound binding for each proMMP were estimated by differential scanning calorimetry (DSC) and from ThermoFluor® data. The heat capacity of unfolding for each protein was estimated from the molecular weight and from ThermoFluor® dosing data.
ThermoFluor® with proMMP9(67-444;ΔFnII) (SEQ ID NO:5)
The protein sample preparations had to include a desalting buffer exchange step via a PD-10 gravity column (GE Healthcare). The desalting buffer exchange was performed prior to diluting the protein to the final assay concentration of 3.5 μM proMMP9(67-444;ΔFnII) (SEQ ID NO:5). The concentration of proMMP9(67-444;ΔFnII) (SEQ ID NO:5) was determined spectrophotometrically based on a calculated extinction coefficient of ε280=33900 M^−1cm^−1, a calculated molecular weight of 22.6 kDa, and calculated pI of 5.20. ThermoFluor® reference conditions were defined as follows: 80 μg/mL (3.5 μM) proMMP9(67-444;ΔFnII) (SEQ ID NO:5), 50 μM 1,8-ANS, pH 7.0 Buffer (50 mM HEPES pH 7.0, 100 mM NaCl, 0.001% Tween-20, 2.5 mM MgCl2, 300 μM CaCl2). The thermodynamic parameters for proMMP9(67-444;ΔFnII) (SEQ ID NO:5) are as follows: Tm (° C.)=63 (+/−0.1), ΔUH(Tm) (cal mol^−1)=105000(+/−5000), ΔUS(Tm) (cal mol^−1 K^−1)=450, […].

[2] = target: T2, full-length proMMP9(1-707) (SEQ ID NO:1) (Homo sapiens, UniProt P14780, R574P); assay: proMMP9/MMP3 P126 Activation Assay; type: biochemical; settings: proMMP9(1-707) from HEK293 cells activated by catalytic MMP3
T2 construct: made in house; host or cells: HEK293 (proMMP9, secreted); E. coli (MMP3)
Protocol: proMMP9/MMP3 P126 Activation Assay
The reaction volume was 50 μL. […] Reactivity of residual MMP3 towards P-126 substrate was minimal under these conditions.

[3] = target: T3, proMMP9(20-445;ΔFnII) (SEQ ID NO:6) (Homo sapiens, UniProt P14780, DEL216-390); assay: ThermoFluor with proMMP9(20-445;ΔFnII); settings: read-out: proMMP9(20-445; ΔFnII) (SEQ ID NO: 6) binding
T3 construct: start methionine (N); made in house; host or cells: E. coli BL21(DE3) RIL
T3 sequence (P14780 with tags, fused parts or gaps DEL216-390): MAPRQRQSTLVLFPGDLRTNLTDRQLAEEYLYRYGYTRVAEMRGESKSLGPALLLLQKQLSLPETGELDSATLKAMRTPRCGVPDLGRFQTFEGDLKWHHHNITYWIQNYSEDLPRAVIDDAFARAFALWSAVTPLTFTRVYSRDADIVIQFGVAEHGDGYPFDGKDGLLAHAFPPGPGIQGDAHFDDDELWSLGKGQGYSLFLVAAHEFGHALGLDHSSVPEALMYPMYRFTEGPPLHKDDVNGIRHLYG
Protocol: as §1, §2, §3, §4
ThermoFluor® with proMMP9(20-445;ΔFnII) (SEQ ID NO:6)
The protein sample preparations included a desalting buffer exchange step via a PD-10 gravity column (GE Healthcare). The desalting buffer exchange was performed prior to diluting the protein to the final assay concentration of 2.8 μM proMMP9(20-445;ΔFnII) (SEQ ID NO:6). The concentration of proMMP9(20-445;ΔFnII) (SEQ ID NO:6) was determined spectrophotometrically based on a calculated extinction coefficient of ε280=39880 M^−1cm^−1, a calculated molecular weight of 28.2 kDa, and calculated pI of 5.5. ThermoFluor® reference conditions were define as follows: 80 μg/mL (2.8 μM) proMMP9(20-445;ΔFnII) (SEQ ID NO:6), 50 μM 1,8-ANS, pH 7.0 Buffer (50 mM HEPES pH 7.0, 100 mM NaCl, 0.001% Tween-20, 2.5 mM MgCl2, 300 μM CaCl2). The thermodynamic parameters for proMMP9(20-445;ΔFnII) (SEQ ID NO:6) are as follows: Tm (° C.)=72 (+/−0.1), ΔUH(Tm) (cal mol^−1)=160000(+/−5000), ΔUS(Tm) (cal mol^−1 K^−1)=434, ΔUCp (cal mol^−1 K^−1)=2400.

T2 sequence (P14780 20-707 R574P): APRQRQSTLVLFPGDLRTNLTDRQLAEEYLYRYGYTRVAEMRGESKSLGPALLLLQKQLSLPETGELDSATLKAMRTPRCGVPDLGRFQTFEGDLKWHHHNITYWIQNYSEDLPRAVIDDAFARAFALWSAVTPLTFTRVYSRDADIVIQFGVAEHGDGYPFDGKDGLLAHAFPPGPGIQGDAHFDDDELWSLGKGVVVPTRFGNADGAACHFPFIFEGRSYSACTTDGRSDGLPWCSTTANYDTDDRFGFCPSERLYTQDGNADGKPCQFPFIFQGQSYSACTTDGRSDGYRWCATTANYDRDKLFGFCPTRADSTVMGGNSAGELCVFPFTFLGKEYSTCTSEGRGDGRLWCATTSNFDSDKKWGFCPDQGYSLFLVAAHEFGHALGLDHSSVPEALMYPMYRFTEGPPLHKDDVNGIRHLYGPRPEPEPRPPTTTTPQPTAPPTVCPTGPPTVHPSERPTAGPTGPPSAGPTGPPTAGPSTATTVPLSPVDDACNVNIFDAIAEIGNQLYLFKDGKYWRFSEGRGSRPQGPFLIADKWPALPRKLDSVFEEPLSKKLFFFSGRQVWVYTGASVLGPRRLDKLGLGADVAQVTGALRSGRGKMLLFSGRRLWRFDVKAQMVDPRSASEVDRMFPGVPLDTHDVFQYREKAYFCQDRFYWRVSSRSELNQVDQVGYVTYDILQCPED

| Kd [1] | IC50 [2] | Kd [3] | Compound |
| --- | --- | --- | --- |
| 0.66 µM | 1.3 µM | 0.19 µM | CC(C)Cc1ccc(C(N)=O)cc1Nc1nc(-c2ccc(OCCN3CCC(F)CC3)cc2)cs1 [Example 40, 3-((4-(4-(2-(4-fluoropiperidin-1-yl)ethoxy)phenyl)thiazol-2-yl)amino)-4-isobutylbenzamide.TFA] |
| 0.18 µM | 0.62 µM | 0.33 µM | NS(=O)(=O)c1ccc(OC(F)(F)F)c(Nc2nc(-c3ccc(OCCN4CCC(F)CC4)cc3)cs2)c1 [Example 41, 3-((4-(4-(2-(4-fluoropiperidin-1-yl)ethoxy)phenyl)thiazol-2-yl)amino)-4-(trifluoromethoxy)benzenesulfonamide.TFA] |
| 0.079 µM | 0.11 µM | 0.036 µM | CC(C)Oc1ccc(S(N)(=O)=O)cc1Nc1nc(-c2ccc(CN3CCN(C4CC4)CC3)cc2)cs1 [Example 51, 3-((4-(4-((4-cyclopropylpiperazin-1-yl)methyl)phenyl)thiazol-2-yl)amino)-4-isopropoxybenzenesulfonamide.TFA] |
| 0.087 µM | 0.11 µM | 0.027 µM | CC(C)Oc1ccc(C(N)=O)cc1Nc1nc(-c2ccc(CN3CC[C@@H](F)C3)cc2)cs1 [Example 52, (R)-3-((4-(4-((3-fluoropyrrolidin-1-yl)methyl)phenyl)thiazol-2-yl)amino)-4-isopropoxybenzamide.TFA] |
| 0.11 µM | 0.095 µM | 0.031 µM | CC(C)Oc1ccc(C(N)=O)cc1Nc1nc(-c2ccc(CN3CCC(F)CC3)cc2)cs1 [Example 54, 3-((4-(4-((4-fluoropiperidin-1-yl)methyl)phenyl)thiazol-2-yl)amino)-4-isopropoxybenzamide.TFA] |
| 0.053 µM | 0.14 µM | 0.03 µM | CC(C)Oc1ccc(S(N)(=O)=O)cc1Nc1nc(-c2ccc(CN3CCC(F)CC3)cc2)cs1 [Example 55, 3-((4-(4-((4-fluoropiperidin-1-yl)methyl)phenyl)thiazol-2-yl)amino)-4-isopropoxybenzenesulfonamide.TFA] |
| 0.21 µM | 0.25 µM | 0.056 µM | CC(C)Oc1ccc(C(N)=O)cc1Nc1nc(-c2ccc(CN3CCOCC3)cc2)cs1 [Example 58, 4-isopropoxy-3-((4-(4-(morpholinomethyl)phenyl)thiazol-2-yl)amino)benzamide.TFA] |

More lines, now with the values behind:

| Compound | Kd [1] | IC50 [2] | Kd [3] |
| --- | --- | --- | --- |
| CC(C)Oc1ccc(S(N)(=O)=O)cc1Nc1nc(-c2ccc(OCCN3CCC(F)(F)CC3)cc2)cs1 [Example 31, 3-((4-(4-(2-(4,4-Difluoropiperidin-1-yl)ethoxy)phenyl)thiazol-2-yl)amino)-4-isopropoxybenzenesulfonamide.TFA] | 0.15 µM | 1.1 µM | 0.075 µM |
| CC(C)Oc1ccc(C(N)=O)cc1Nc1nc(-c2ccc(OCCN3CCC(F)(F)CC3)cc2)cs1 [Example 32, 3-((4-(4-(2-(4,4-Difluoropiperidin-1-yl)ethoxy)phenyl)thiazol-2-yl)amino)-4-isopropoxybenzamide.TFA] | 0.39 µM | 0.43 µM | 0.1 µM |
| NS(=O)(=O)c1ccc(OC(F)(F)F)c(Nc2nc(-c3ccc(OCCN4CCC(F)(F)CC4)cc3)cs2)c1 [Example 33, 3-((4-(4-(2-(4,4-difluoropiperidin-1-yl)ethoxy)phenyl)thiazol-2-yl)amino)-4-(trifluoromethoxy)benzenesulfonamide.TFA] | 0.65 µM | 16 µM | 1.3 µM |
| CC(C)Oc1ccc(S(N)(=O)=O)cc1Nc1nc(-c2ccc(OCCN3CCC(F)CC3)cc2)cs1 [Example 34, 3-((4-(4-(2-(4-fluoropiperidin-1-yl)ethoxy)phenyl)thiazol-2-yl)amino)-4-isopropoxybenzenesulfonamide.TFA] | 0.028 µM | 0.12 µM | 0.021 µM |
| COc1ccncc1Nc1nc(-c2ccc(OCCN3CCC(F)CC3)cc2)cs1 [Example 35, 4-(4-(2-(4-fluoropiperidin-1-yl)ethoxy)phenyl)-N-(4-methoxypyridin-3-yl)thiazol-2-amine.TFA] | 1 µM | 0.78 µM | 4.3 µM |
| CCOc1ccncc1Nc1nc(-c2ccc(OCCN3CCC(F)CC3)cc2)cs1 [Example 36, N-(4-ethoxypyridin-3-yl)-4-(4-(2-(4-fluoropiperidin-1-yl)ethoxy)phenyl)thiazol-2-amine.TFA] | 0.096 µM | 0.092 µM | 1.8 µM |
| NC(=O)c1ccc(OC(F)(F)F)c(Nc2nc(-c3ccc(OCCN4CCC(F)CC4)cc3)cs2)c1 [Example 37, 3-((4-(4-(2-(4-fluoropiperidin-1-yl)ethoxy)phenyl)thiazol-2-yl)amino)-4-(trifluoromethoxy)benzamide.TFA] | 0.27 µM | 0.36 µM | 0.074 µM |
| NS(=O)(=O)c1cc2c(c(Nc3nc(-c4ccc(OCCN5CCC(F)CC5)cc4)cs3)c1)OCC2 [Example 38, 7-((4-(4-(2-(4-fluoropiperidin-1-yl)ethoxy)phenyl)thiazol-2-yl)amino)-2,3-dihydrobenzofuran-5-sulfonamide.TFA] | 3 µM | > 20 µM | 2.6 µM |
| COc1cc(C)c(C(N)=O)cc1Nc1nc(-c2ccc(OCCN3CCC(F)CC3)cc2)cs1 [Example 39, 5-((4-(4-(2-(4-fluoropiperidin-1-yl)ethoxy)phenyl)thiazol-2-yl)amino)-4-methoxy-2-methylbenzamide.TFA] | 0.64 µM | 0.72 µM | 0.55 µM |
